Active and inactive are the calls of the source.

For 64 compounds, Activity results are on record in ChEMBL document CHEMBL1287661, “Computational structure-activity relationship analysis of small-molecule agonists for human formyl peptide receptors” (Eur J Med Chem, 2010).

Test [1] deals with T1, N-formyl peptide receptor 2 (Homo sapiens) (UniProt P25090).
T1 sequence (whole entry): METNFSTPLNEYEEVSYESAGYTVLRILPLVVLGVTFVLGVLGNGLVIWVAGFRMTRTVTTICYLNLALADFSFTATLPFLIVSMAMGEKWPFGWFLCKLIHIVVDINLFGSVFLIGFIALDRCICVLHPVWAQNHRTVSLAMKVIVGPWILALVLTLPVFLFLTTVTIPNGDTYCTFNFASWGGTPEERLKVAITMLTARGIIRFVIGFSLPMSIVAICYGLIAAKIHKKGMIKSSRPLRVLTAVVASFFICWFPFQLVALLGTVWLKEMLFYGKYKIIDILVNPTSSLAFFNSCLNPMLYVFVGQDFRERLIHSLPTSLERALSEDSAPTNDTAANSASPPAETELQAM
The test can be described thus: Agonist activity at human FPR2 expressed in RBL-2H3 cells assessed as induction of calcium mobilization. It is filed as functional, cell-based. (In general: A change in cytosolic calcium serves as a functional read-out for many receptors and channels.)

For test [2], the target named is T2, fMet-Leu-Phe receptor (Homo sapiens) (UniProt P21462).
T2 sequence (whole entry): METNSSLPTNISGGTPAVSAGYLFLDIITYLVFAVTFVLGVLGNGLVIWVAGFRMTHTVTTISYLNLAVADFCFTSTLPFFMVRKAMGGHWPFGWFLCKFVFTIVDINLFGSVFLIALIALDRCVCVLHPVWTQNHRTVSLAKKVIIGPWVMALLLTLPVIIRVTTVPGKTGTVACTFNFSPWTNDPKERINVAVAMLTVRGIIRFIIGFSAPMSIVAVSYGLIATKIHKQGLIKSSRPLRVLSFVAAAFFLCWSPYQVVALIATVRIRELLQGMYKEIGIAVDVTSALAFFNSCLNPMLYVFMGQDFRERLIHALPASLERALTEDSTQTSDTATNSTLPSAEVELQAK
The test can be described thus: Agonist activity at human FPR1 expressed in RBL-2H3 cells assessed as induction of calcium mobilization. It is filed as functional, cell-based.

As for `O=C(CNc1ccccc1)N/N=C/C=C/c1ccccc1[N+](=O)[O-]`, the outcome in test [1] was Active. As for `O=C(Cc1ccccc1)N/N=C/C=C/c1ccccc1[N+](=O)[O-]`, the result in test [2] and in test [1] was inactive.

As for `O=C(CN1CCN(c2ccccc2)CC1)Nc1ccc(Br)cc1`, the outcome in test [1] was Active.

On to `COc1ccc(NC(=O)Nc2ccc(C(=O)N3CCCCC3)cc2)cc1`, for which the result in test [2] and in test [1] was Active. As to `Cc1cccc2[nH]c(SCC(=O)Nc3ccc(Cl)c([N+](=O)[O-])c3)nc12`, the result in test [2] and in test [1] was inactive.

For the compound `O=C(CN1CCN(c2cccc(Cl)c2)CC1)Nc1ccc(Br)cc1`, in test [1], the outcome was Active. Regarding `O=C1NCC(c2ccccc2)C1C(=O)N/N=C/C=C/c1ccc(Br)cc1` (configuration not stated), the result in test [2] and in test [1] was inactive. On to `COc1ccc2[nH]c(SCC(=O)Nc3ccccc3OC)nc2c1`, for which the outcome in test [2] and in test [1] was Active. For the compound `CCOc1ccc(C(=O)NN2C(=O)c3ccccc3NC2c2ccc(OC)cc2)cc1` (configuration not stated), the result in test [1] was Active.

As to `COc1ccc2[nH]c(SCC(=O)Nc3ccccc3)nc2c1`, the result in test [2] was Active. Regarding `COc1ccc(CCNC(=O)Nc2ccc(Br)cc2)cc1`, in test [1], the result was Active. As for `CCC(Nc1ccc(OC)cc1)C(=O)N/N=C(C)/C=C/c1ccccc1` (configuration not stated), the outcome in test [1] was Active.

Regarding `COc1ccc(CCNC(=O)Nc2ccc(F)cc2)cc1`, the outcome in test [1] was Active.

Regarding `COc1ccc(NC(=O)CCCCc2cccs2)cc1`, the outcome in test [1] was Active. For `CC1(C)CC(=O)C(C(c2cccc(OCc3ccccc3)c2)C2C(=O)CC(C)(C)CC2=O)C(=O)C1`, the result in test [2] was Active.

`O=C(CSc1nc2ccccc2[nH]1)Nc1ccc([N+](=O)[O-])cc1`: the result in test [2] and in test [1] was inactive. In the case of `COc1ccc2[nH]c(SCC(=O)Nc3ccc(Cl)cc3)nc2c1`, the result in test [2] and in test [1] was Active. On to `O=C(CN1CCN(c2ccccn2)CC1)Nc1ccc(Cl)cc1`, for which the outcome in test [2] and in test [1] was inactive. For `COc1ccc(CCNC(=O)Nc2ccc(Cl)cc2)cc1`, the result in test [1] was Active. For the compound `Cc1ccc(N2CCN(CC(=O)Nc3ccc(Br)cc3)CC2)cc1Cl`, the outcome in test [1] was Active.

Take `O=C(NCCc1ccccc1)Nc1ccccc1`: the outcome in test [2] and in test [1] was inactive. On to `COc1cccc(Cc2cc(C)nn(CC(=O)Nc3ccc4c(c3)OCO4)c2=O)c1`, for which, in test [2], the result was Active. For `O=C(CN1CCN(c2ccccc2)CC1)Nc1ccccc1Br`, the outcome in test [2] and in test [1] was inactive. For the compound `CSCC[C@H](NC(=O)[C@H](Cc1ccc(O)cc1)NC(=O)[C@H](CCCCN)NC(=O)[C@@H](N)Cc1c[nH]c2ccccc12)C(=O)N[C@H](C(=O)N[C@H](CCSC)C(N)=O)C(C)C`, the outcome in test [2] and in test [1] was Active. For `COc1cccc(NC(=O)CSc2nc3cc(OC)ccc3[nH]2)c1`, the outcome in test [2] was Active. `Cc1cccc(NC(=O)NCCc2ccc(Cl)cc2)c1`: the result in test [2] and in test [1] was inactive. For `O=C(CSc1nc2ccccc2[nH]1)Nc1ccccc1`, the result in test [2] and in test [1] was inactive. Consider `COc1ccc(CCNC(=O)Nc2ccc(Cl)cc2Cl)cc1`, for which the outcome in test [2] and in test [1] was inactive. `COc1ccc(C2Nc3ccccc3C(=O)N2NC(=O)c2ccc([N+](=O)[O-])cc2)cc1` (configuration not stated): in test [1], the result was Active. Turning to `COc1ccc(CCNC(=O)Nc2ccccc2)cc1`, in test [1], the outcome was Active. In the case of `O=C(CN1CCN(c2ccc(Cl)cc2)CC1)Nc1ccc(Br)cc1`, the outcome in test [1] was Active. Take `COc1ccccc1/C=C/C=N/NC(=O)Cc1cccs1`: the result in test [2] and in test [1] was inactive. `O=C1NCC(c2ccccc2)C1C(=O)N/N=C/C=C/c1ccccc1[N+](=O)[O-]` (configuration not stated): the outcome in test [1] was Active.

As to `O=C(CN1CCN(c2ccc(F)cc2)CC1)Nc1ccc(Br)cc1`, the outcome in test [1] was Active.

In the case of `O=C(CN1CCN(c2ccccc2)CC1)Nc1ccccc1`, the result in test [2] and in test [1] was inactive. As to `Cc1ccc2[nH]c(SCC(=O)Nc3cccc(C(F)(F)F)c3)nc2c1`, the outcome in test [2] and in test [1] was inactive. On to `O=C(CN1CCN(c2ccccc2)CC1)Nc1ccc(F)c(Cl)c1`, for which the result in test [2] and in test [1] was inactive. As for `O=C(NCCc1ccc(Cl)cc1)Nc1ccccc1[N+](=O)[O-]`, the outcome in test [2] and in test [1] was inactive.

On to `COc1ccc2[nH]c(SCC(=O)Nc3ccc(Br)cc3)nc2c1`, for which the outcome in test [2] was Active. With `Cc1c(NC(=O)Nc2ccc(Br)cc2)c(=O)n(-c2ccccc2)n1C`, the result in test [1] was Active. Turning to `O=C(CSc1nc2ccccc2[nH]1)Nc1cccc(Br)c1`, the outcome in test [2] and in test [1] was inactive. Take `COc1ccc2[nH]c(SCC(=O)Nc3ccc([N+](=O)[O-])cc3)nc2c1`: in test [2], the result was Active. Turning to `COc1cccc(N2CCN(CC(=O)Nc3ccc(Br)cc3)CC2)c1`, the outcome in test [1] was Active. Consider `Cc1ccc(Cl)cc1N1CCN(CC(=O)Nc2ccc(Br)cc2)CC1`, for which the outcome in test [1] was Active. Take `O=C(CN1CCN(c2ccccc2)CC1)Nc1cccc(Br)c1`: the outcome in test [2] and in test [1] was inactive.

Take `O=C(CN1CCN(c2ccccc2Cl)CC1)Nc1ccccc1`: the outcome in test [2] and in test [1] was inactive. With `COc1ccc2[nH]c(SCC(=O)Nc3ccc(OC)c(OC)c3)nc2c1`, the result in test [2] and in test [1] was Active. With `COc1ccc(CC(=O)N/N=C/C=C/c2ccccc2[N+](=O)[O-])cc1OC`, the outcome in test [1] was Active. For `COc1ccc(NC(=S)NN2C(=O)CSC2c2c[nH]c3ccccc23)cc1` (configuration not stated), the outcome in test [2] and in test [1] was Active. Take `O=C(N/N=C/c1ccc(-c2cccc(C(F)(F)F)c2)o1)c1ccc(F)cc1`: in test [1], the outcome was Active. Consider `CCOc1ccc2[nH]c(SCC(=O)Nc3ccc(OC)cc3)nc2c1`, for which the result in test [2] was Active. Consider `CCc1c(NC(=O)Nc2ccc(Cl)cc2)c(=O)n(-c2ccccc2)n1C`, for which the result in test [1] was Active. On the same count and under the same terms, then `O=C(N/N=C/c1ccc(-c2cccc(Br)c2)o1)c1cccnc1`, with “Active”; and `O=C(NNC(=O)c1ccccc1[N+](=O)[O-])c1ccc(Cl)cc1`, with “Active”. `CCOc1ccc(NC(=O)CSc2nc3cc(OC)ccc3[nH]2)cc1`: in test [2], the outcome was Active. Take `CCc1nc2ccccc2n1[C@@H]1CCN(C(=O)c2nc3cc(OC)ccc3[nH]2)C1`: the outcome in test [1] was Active. With `CCCC(C)c1ccc(OCC(=O)N/N=C/c2ccsc2)cc1` (configuration not stated), the outcome in test [2] and in test [1] was Active. For `COc1cc(/C=N/NC(=O)c2ccc3c(c2)OCO3)ccc1OCc1ccccc1`, the outcome in test [2] was Active. For the compound `Cc1ccc(CCNC(=O)Nc2ccc(F)cc2)cc1`, the outcome in test [2] and in test [1] was inactive. Take `O=C(CSc1nc2ccccc2s1)N/N=C/C=C/c1ccccc1[N+](=O)[O-]`: the outcome in test [2] and in test [1] was inactive.

As to `CSc1ccc(NC(=O)Nc2c(C)n(C)n(-c3ccccc3)c2=O)cc1`, the result in test [1] was Active. Turning to `O=C(Cc1ccc(Br)cc1)N/N=C/C=C/c1ccccc1[N+](=O)[O-]`, in test [1], the outcome was Active. In the case of `CC(C)c1c(NC(=O)Nc2ccc(Cl)cc2)c(=O)n(-c2ccccc2)n1C`, the result in test [2] and in test [1] was Active.

Consider `Cc1c(Cl)cccc1N1CCN(CC(=O)Nc2ccc(Br)cc2)CC1`, for which the result in test [1] was Active.
